Where two headings read alike, the source gives them in different places. Marks after values point to notes of the source that are not given here.
Key:
[1] = Direct measurement of Kaw using the standard VPR-HS method; assay type: physicochemical; conditions: measured by the VPR-HS method in this study, 25 °C
Text: Kaw values for five PFAS were directly measured using a standard VPR-HS method, as in the literature.[7],[8] The experimental procedure is similar to what has been described previously for KHxd/air([21]) and is summarized in SI-3.

[2] = Hexadecane/water partition coefficient, batch partition method; assay type: physicochemical; conditions: for log KHxd/w batch partition method mean: 25 °C, n = 5; for log KHxd/w with pure water lower than with 1 mM HCl solution by: preliminary experiments, pure water vs 1 mM HCl
[3] = Hexadecane/water partition coefficient, modified VPR-HS method; assay type: physicochemical; conditions: 25 °C
Method: KHxd/w was also measured with a modified version of the VPR-HS method; 20 mL headspace vials were filled with water and hexadecane with different volume ratios. The total liquid volume was always 20 mL. All vials received the same amount of the target compound. After equilibration at 25 °C, the headspace was injected into the GC/MS. […] Here, response linearity as well as no significant mass of the compound in the headspace and any other interface (e.g., vial wall, hexadecane/water interface, septum) was assumed. As α, m, and Vtot (=20 mL) are constant for a given compound, KHxd/w can be fitted on the data of PA vs VHxd. Theoretically, KHxd/w could be determined with a minimum of two VHxd conditions (e.g., 0 and 20 mL), whereas at least four VHxd values were prepared in this work.

[4] = Air/water partition coefficient via hexadecane/air/water thermodynamic cycle (eq 1); assay type: physicochemical; conditions: for log Kaw eq 1: 25 °C, KHxd/w divided by KHxd/air
Method: The objectives of this study are to obtain new experimental data for Kaw at 25 °C for a series of neutral PFAS and to evaluate Kaw prediction models. […] To circumvent the difficulty associated with direct measurement of Kaw, we determined Kaw indirectly by measuring the hexadecane/water partition coefficient (KHxd/w) and applying the hexadecane/air/water thermodynamic cycle: [drawing 1] 1 where KHxd/air is the hexadecane/air partition coefficient. KHxd/w can be measured more reliably than Kaw because gas phase quantification is not needed and hexadecane has a larger solubilization capacity than water, which minimizes the problem of third-phase sorption. […] The new Kaw data for 21 PFAS were compared to predictions by four models that are often used in environmental risk assessments.

[5] = Hexadecane/water partition coefficient, shared-headspace method; assay type: physicochemical; conditions: for log KHxd/w shared-headspace method mean: 25 °C, n = 5
Method: The method concept is based on the existing publications that used a shared-headspace system for salting-out experiments[26] and ecotoxicity tests.[27],[28] Hexadecane solution of PFAS was placed in a 350 μL insert hosted by a 1.5 mL GC vial. This small vial was put in a 10 mL headspace vial that contained 1 mL of water. The 10 mL vial was closed with a PTFE-lined septum and gently shaken at 25 °C for 24 h. During this time, the compound dissolved in hexadecane was partially transferred to water via the headspace until a three-phase partition equilibrium was reached between hexadecane, air, and water. Water was then sampled and immediately extracted with n-hexane for GC/MS analysis. The hexadecane phase was also analyzed, which confirmed 85–100% mass conservation (Table S3). KHxd/w was obtained from the measured concentration in water, as in the batch partition method. […] The shared-headspace method is useful for compounds with sufficient volatility (relatively high Kaw, low KHxd/air) and hydrophobicity (relatively high KHxd/w), as these properties ensure an efficient transfer from hexadecane to water via air and negligible concentration depletion in hexadecane. Therefore, nine PFAS that meet this requirement were measured by this method, while all eight sulfonamides and four short-chain FTOHs were not.
SI-1 Extended descriptions for experimental methods
Pure PFAS were dissolved in hexadecane either directly or using acetone as carrier solvent. Up to three PFAS were mixed in hexadecane and investigated simultaneously. The PFAS concentration in hexadecane was 0.1–2000 mg/L, depending on the expected KHxd/w and the sensitivity of the quantification method. The acetone content in hexadecane was up to 0.3% (v/v). This acetone should have largely partitioned into water during the partition experiment, where the final concentration in water was estimated to be < 0.3% (v/v). We assumed that this concentration of acetone in water does not have a significant influence on partition coefficients of PFAS. […]
The water phase was analyzed directly by liquid chromatography/mass spectrometry (LC/MS) (for PFBSA, PFHxSA, MeFBSA, MeFHxSA, MeFBSE), diluted with acetonitrile and analyzed with LC/MS (for PFOSA EtFHxSA, EtFHxSE), or liquid-liquid-extracted with n-hexane and analyzed by gas chromatography/mass spectrometry (GC/MS) (for all others). The hexadecane phase was back-extracted with water (for PFBSA, PFHxSA) or with 0.1 mM NaOH water (for PFOSA) and measured by LC/MS, or it was diluted with n-hexane by a factor of 100–500 and analyzed by GC/MS (for all others). […]
The 95% confidence interval (CI) of the mean (x) was calculated with the formula, x ± 2.78 SD/√5, where SD is the standard deviation, based on the t-distribution and n = 5. […]
PFHxSA, PFOSA, MeFBSA, MeFHxSA, and EtFHxSA were performed using 1 mM HCl aqueous solution […]
A shared headspace method was used to measure KHxd/w for nine PFAS. In this method, hexadecane solution of PFAS was prepared as described above and 300 μL was placed in a 350-μL glass insert

[6] = cited from earlier work
[7] = 1 mM HCl was used instead of pure water

OCC(F)(F)C(F)(F)C(F)(F)F [3:1 FTOH, 1H,1H-perfluorobutan-1-ol]
log Kaw VPR-HS [1]: –2.03 ^d

OCCCC(F)(F)C(F)(F)C(F)(F)F [3:3 FTOH, 3-(perfluoropropyl)propan-1-ol]
log KHxd/w batch partition method mean ([2]; pure water): 0.52
log Kaw VPR-HS [1]: –2.04 ^d
log KHxd/w modified VPR-HS method mean [3]: 0.32
log Kaw eq 1 [4]: –2.17

FC(F)(F)C(F)(F)C(F)(F)C(F)(F)CCI [4:2 FTI, 1H,1H,2H,2H-perfluorohexyl iodide]
log KHxd/w shared-headspace method mean [5]: 4.93
log Kaw eq 1 [4]: 1.60

C=C(C)C(=O)OCCC(F)(F)C(F)(F)C(F)(F)C(F)(F)F [4:2 FTMAC, 1H,1H,2H,2H-perfluorohexyl methacrylate]
log KHxd/w shared-headspace method mean [5]: 4.65
log Kaw VPR-HS [1]: –0.14 ^d
log Kaw eq 1 [4]: 0.62

OCCC(F)(F)C(F)(F)C(F)(F)C(F)(F)F [4:2 FTOH, 1H,1H,2H,2H-perfluorohexan-1-ol]
log KHxd/w batch partition method mean ([2]; pure water): 0.79
log Kaw VPR-HS [1]: –1.56
log KHxd/w modified VPR-HS method mean [3]: 0.75
log Kaw VPR-HS or VP/S ([6]; 23 or 24 °C ref 12): −1.52
log Kaw VPR-HS or VP/S ([6]; literature value ref 7): −1.30
log Kaw VPR-HS or VP/S ([6]; literature value ref 8): −1.63
log Kaw VPR-HS or VP/S ([6]; literature value ref 9): −1.21
log Kaw eq 1 [4]: –1.57

OCCCCC(F)(F)C(F)(F)C(F)(F)C(F)(F)F [4:4 FTOH, 4-(perfluorobutyl)butan-1-ol]
log KHxd/w batch partition method mean ([2]; pure water): 1.60
log Kaw VPR-HS [1]: –1.28 ^d
log KHxd/w modified VPR-HS method mean [3]: 1.43
log Kaw eq 1 [4]: –1.97

CC(O)C(F)(F)C(F)(F)C(F)(F)C(F)(F)C(F)(F)F (stereo not shown) [5:2s FTOH, 1H,1H,1H,2H-perfluoroheptan-2-ol]
log KHxd/w batch partition method mean ([2]; pure water): 2.00
log KHxd/w shared-headspace method mean [5]: 2.04
log KHxd/w modified VPR-HS method mean [3]: 1.55
log Kaw eq 1 [4]: –0.15

FC(F)(F)C(F)(F)C(F)(F)C(F)(F)C(F)(F)C(F)(F)CI [6:1 FTI, 1H,1H-perfluoroheptyl iodide]
log KHxd/w shared-headspace method mean [5]: 5.66
log Kaw eq 1 [4]: 2.28

FC(F)C(F)(F)C(F)(F)C(F)(F)C(F)(F)C(F)(F)CI [6:1 FTI-7H, 1H,1H,7H-perfluoroheptyl iodide]
log KHxd/w shared-headspace method mean [5]: 4.62
log KHxd/w lower than that of 6:1 FTI by ([5]; difference to 6:1 FTI): 1.0 log unit
log Kaw eq 1 [4]: 0.70
log Kaw lower than that of 6:1 FTI by ([4]; difference to 6:1 FTI): 1.6 log units

C=CC(=O)OCCC(F)(F)C(F)(F)C(F)(F)C(F)(F)C(F)(F)C(F)(F)F [6:2 FTAC, 1H,1H,2H,2H-perfluorooctyl acrylate]
log KHxd/w shared-headspace method mean [5]: 5.43
log Kaw eq 1 [4]: 1.27

OCCC(F)(F)C(F)(F)C(F)(F)C(F)(F)C(F)(F)C(F)(F)F [6:2 FTOH, 1H,1H,2H,2H-perfluorooctan-1-ol]
log KHxd/w batch partition method mean ([2]; pure water): 2.50
log KHxd/w shared-headspace method mean [5]: 2.51
log Kaw VPR-HS or VP/S ([6]; 23 or 24 °C ref 12): −0.44
log Kaw VPR-HS or VP/S ([6]; literature value ref 7): –1.47
log Kaw VPR-HS or VP/S ([6]; literature value ref 8): −0.56
log Kaw VPR-HS or VP/S ([6]; literature value ref 9): 0.37
log Kaw eq 1 [4]: –0.64

OCC(F)(F)C(F)(F)C(F)(F)C(F)(F)C(F)(F)C(F)(F)C(F)(F)F [7:1 FTOH, 1H,1H-perfluorooctan-1-ol]
log KHxd/w shared-headspace method mean [5]: 2.70
log Kaw eq 1 [4]: –0.26

OCCC(F)(F)C(F)(F)C(F)(F)C(F)(F)C(F)(F)C(F)(F)C(F)(F)C(F)(F)F [8:2 FTOH, 1H,1H,2H,2H-perfluorodecan-1-ol]
log KHxd/w shared-headspace method mean [5]: 3.75
log Kaw VPR-HS or VP/S ([6]; 23 or 24 °C ref 12): 0.96
log Kaw VPR-HS or VP/S ([6]; literature value ref 7): –1.82
log Kaw VPR-HS or VP/S ([6]; literature value ref 8): 0.58
log Kaw VPR-HS or VP/S ([6]; literature value ref 9): 0.31
log Kaw eq 1 [4]: 0.11

CCNS(=O)(=O)C(F)(F)C(F)(F)C(F)(F)C(F)(F)C(F)(F)C(F)(F)F [EtFHxSA, N-ethyl perfluorohexane sulfonamide]
log KHxd/w batch partition method mean [2, 7]: 2.95 ^c
log Kaw eq 1 [4]: –1.58

CCN(CCO)S(=O)(=O)C(F)(F)C(F)(F)C(F)(F)C(F)(F)C(F)(F)C(F)(F)F [EtFHxSE, N-ethyl perfluorohexane sulfonamidoethanol]
log KHxd/w batch partition method mean ([2]; pure water): 2.76
log Kaw eq 1 [4]: –3.02

CNS(=O)(=O)C(F)(F)C(F)(F)C(F)(F)C(F)(F)F [MeFBSA, N-methyl perfluorobutane sulfonamide]
log KHxd/w batch partition method mean [2, 7]: 0.82 ^c
log Kaw eq 1 [4]: –2.85

CN(CCO)S(=O)(=O)C(F)(F)C(F)(F)C(F)(F)C(F)(F)F [MeFBSE, N-methyl perfluorobutane sulfonamidoethanol]
log KHxd/w batch partition method mean ([2]; pure water): 0.49
log Kaw eq 1 [4]: –4.35

CNS(=O)(=O)C(F)(F)C(F)(F)C(F)(F)C(F)(F)C(F)(F)C(F)(F)F [MeFHxSA, N-methyl perfluorohexane sulfonamide]
log KHxd/w batch partition method mean [2, 7]: 2.25 ^c
log Kaw eq 1 [4]: –2.01

NS(=O)(=O)C(F)(F)C(F)(F)C(F)(F)C(F)(F)F [PFBSA, perfluorobutane sulfonamide]
log KHxd/w batch partition method mean [2, 7]: –1.15 ^c
log KHxd/w with pure water lower than with 1 mM HCl solution by [2]: 0.5–0.9 log units
log Kaw eq 1 [4]: –4.89

NS(=O)(=O)C(F)(F)C(F)(F)C(F)(F)C(F)(F)C(F)(F)C(F)(F)F [PFHxSA, perfluorohexane sulfonamide]
log KHxd/w batch partition method mean [2, 7]: 0.39 ^c
log KHxd/w with pure water lower than with 1 mM HCl solution by [2]: 0.5–0.9 log units
log Kaw eq 1 [4]: –3.94

NS(=O)(=O)C(F)(F)C(F)(F)C(F)(F)C(F)(F)C(F)(F)C(F)(F)C(F)(F)C(F)(F)F [PFOSA, perfluorooctane sulfonamide]
log KHxd/w batch partition method mean [2, 7]: 1.80 ^c
log Kaw eq 1 [4]: –3.04
